The text below walks through data of US11873291B2, “Quinoline cGAS antagonist compounds” (ImmuneSensor Therapeutics, Inc., priority 2020, dated 2024).

pIC50: −log10 of the molar value. A value given as a limit tells only on which side of the number the result lay.

As usually defined, the pIC50 is the negative decadic logarithm of the IC50, by convention in mol/L.

The target of the first assay is T1, recombinant human cGAS (aa147-522) (Homo sapiens, UniProt Q8N884).
T1 construct: recombinant human cGAS (aa147-522); His6-SUMO (cleaved yes); made in house; host or cells: E. coli BL21/pLys
T1 sequence (Q8N884 147-522): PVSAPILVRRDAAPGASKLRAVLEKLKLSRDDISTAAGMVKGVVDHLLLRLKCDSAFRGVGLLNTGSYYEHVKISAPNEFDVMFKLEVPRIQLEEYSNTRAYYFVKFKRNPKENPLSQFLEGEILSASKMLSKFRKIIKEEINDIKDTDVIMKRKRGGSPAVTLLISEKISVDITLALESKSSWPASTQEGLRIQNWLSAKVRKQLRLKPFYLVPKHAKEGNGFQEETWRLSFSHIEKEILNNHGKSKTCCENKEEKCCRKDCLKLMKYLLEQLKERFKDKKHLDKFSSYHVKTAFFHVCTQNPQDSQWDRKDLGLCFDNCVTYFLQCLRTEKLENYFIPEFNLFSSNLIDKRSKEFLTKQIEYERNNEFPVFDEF
Kind of assay: In vitro inhibition assay of cGAS activity (ATP consumption, KinaseGlo Max). To be noted: Table 2, read-out: cGAS Inhibition Results IC50. The class given is biochemical. Put shortly:
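IC50 came from plotting % ATP consumption against log compound concentration, with leftover ATP detected by KinaseGlo Max chemiluminescence. Reactions ran 20 min at 37 °C with 1.5 μg/mL human cGAS (aa147-522), 6.6 μM ATP, 0.1 mM GTP and 0.01 mg/mL DNA at pH 7.5.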
(Kinase-Glo measures the ATP left after a reaction by luminescence.)
`O=S(=O)(O)CCN(Cc1ccccc1)c1cc(-n2ccnc2)c2ccc(Cl)c(Cl)c2n1` [I-164, 2-(benzyl(7,8-dichloro-4-(1H-imidazol-1-yl)quinolin-2-yl)amino)ethane-1-sulfonic acid]: the pIC50 is 4.52 to 5.70.

As to `NS(=O)(=O)O[C@H]1CCCN(c2cc(-n3ccnc3)c3ccc(Cl)c(Cl)c3n2)C1` [I-119, (S)-1-(7,8-dichloro-4-(1H-imidazol-1-yl)quinolin-2-yl)piperidin-3-yl sulfamate], the pIC50 was 4.52 to 5.70.

As to `O=C(CO)N[C@@H]1C[C@@H](C(=O)O)N(c2cc(-n3ccnc3)c3ccc(Cl)c(Cl)c3n2)C1` [I-346], the negative-log IC50 (pIC50) is above 5.70.

As to `C[C@H](CS(N)(=O)=O)Nc1cc(-n2ccnc2)c2ccc(Cl)c(Cl)c2n1` [I-207], the negative logarithm of the IC50 (pIC50) is above 5.70.

Consider `OCC1CCCN(c2cc(-n3ccnc3)c3ccc(Cl)cc3n2)C1` (stereo not shown) [I-140], for which the pIC50 is 4.52 to 5.70.

Consider `Clc1ccc2c(-c3cn[nH]c3)cc(N(CCN3CCOCC3)Cc3ccccc3)nc2c1Cl` [I-216], for which the pIC50 was 4.52 to 5.70.

Consider `O=C(O)/C=C/c1cc(-c2cn[nH]c2)c2ccc(Cl)c(Cl)c2n1` [I-423, 3-(7,8-dichloro-4-(1H-pyrazol-4-yl)quinolin-2-yl)acrylic acid], for which the pIC50 was above 5.70.

For the compound `O=C(CO)NC1(C(=O)O)CCCN(c2cc(-n3ccnc3)c3ccc(Cl)c(Cl)c3n2)C1` (stereo not shown) [I-125, 1-(7,8-dichloro-4-(1H-imidazol-1-yl)quinolin-2-yl)-3-(2-hydroxyacetamido) piperidine-3-carboxylic acid], the pIC50 was above 5.70.

Turning to `OC1CCN(c2cc(-n3ccnc3)c3ccc(Cl)c(Cl)c3n2)CC1` [I-132], the pIC50 was 4.52 to 5.70.

For `Cc1cc(N2CCCNC(=O)C2)c2ccc(Cl)c(Cl)c2n1` [I-305], the pIC50 is below 4.52.

With `O=C(O)C1CN(c2cc(-n3ccnc3)c3ccc(Cl)cc3n2)CCS1` (stereo not shown) [I-89], the pIC50 was 4.52 to 5.70.

For the compound `Brc1ccc2c(-n3nccn3)ccnc2c1` [I-419], the pIC50 was below 4.52.

`COc1c(C(=O)O)cccc1-c1cc(-n2ccnc2)c2ccc(Cl)c(Cl)c2n1` [I-45]: the pIC50 was 4.52 to 5.70.

As for `NS(=O)(=O)c1cccc(-c2cc(-n3ccnc3)c3ccc(Cl)c(Cl)c3n2)c1` [I-46], the pIC50 was above 5.70.

On to `CN(CCCO[PH](=O)O)c1cc(-c2cn[nH]c2)c2ccc(Cl)c(Cl)c2n1` [I-256], for which the pIC50 is above 5.70.

For `O=C1NC(=O)/C(=C\c2cc(-n3ccnc3)c3ccc(Cl)c(Cl)c3n2)S1` [I-276, (E)-5-((7,8-dichloro-4-(1H-imidazol-1-yl)quinolin-2-yl)methylene)thiazolidine-2,4-dione], the pIC50 was above 5.70.

Turning to `OC[C@H]1CCCN1c1cc(-n2ccnc2)c2ccc(Cl)c(Cl)c2n1` [I-141], the pIC50 was above 5.70.

`O=C(O)CNc1cc(-c2ccn[nH]2)nc2c(Cl)c(Cl)ccc12` [I-426]: the pIC50 is below 4.52.

Regarding `O=C(O)CNc1cc(Cl)nc2c(Cl)c(Cl)ccc12` [I-294], the negative logarithm of the IC50 (pIC50) was below 4.52.

In the case of `COC(=O)[C@H]1CCCN(c2cc(-n3ccnc3)c3ccc(Cl)cc3n2)C1` [I-356], the pIC50 was below 4.52.

With `OCC1CN(c2cc(-n3ccnc3)c3ccc(Cl)cc3n2)CCCO1` (stereo not shown) [I-99], the pIC50 was 4.52 to 5.70.

Regarding `CN(CCC(=O)O)c1cc(-n2ccnc2)c2ccc(Cl)c(Cl)c2n1` [I-183], the pIC50 was above 5.70.

Take `COc1ccc2c(-n3ccnc3)ccnc2c1` [I-417]: the pIC50 was below 4.52.

For the compound `O=C(O)[C@@H]1C[C@@H](Oc2ccccc2)CN1c1cc(-n2ccnc2)c2ccc(Cl)c(Cl)c2n1` [I-362], the pIC50 is below 4.52.

Consider `CN(CCCO[PH](=O)OCCC#N)c1cc(-c2cn[nH]c2)c2ccc(Cl)c(Cl)c2n1` (stereo not shown) [I-257], for which the pIC50 is above 5.70.

For the compound `O=C(O)[C@@H]1C[C@@H](NS(=O)(=O)c2ccccc2)CN1c1cc(-n2ccnc2)c2ccc(Cl)c(Cl)c2n1` [I-349], the pIC50 is above 5.70.

On to `CCOc1cc(-n2ccnc2)c2ccc(Cl)cc2n1` [I-280], for which the pIC50 is below 4.52.

In the case of `O=C(N[C@@H]1C[C@@H](C(=O)O)N(c2cc(-n3ccnc3)c3ccc(Cl)c(Cl)c3n2)C1)c1ccccc1` [I-350], the pIC50 is above 5.70.

As for `CC(C)(C)OC(=O)N1CCOC(CNc2cc(-c3cn[nH]c3)c3ccc(Cl)c(Cl)c3n2)C1` (stereo not shown) [I-399], the pIC50 is 4.52 to 5.70.

For the compound `O=[PH](O)OCCCCNc1cc(-c2cn[nH]c2)c2ccc(Cl)c(Cl)c2n1` [I-258], the pIC50 is above 5.70.

With `CN(CCNS(C)(=O)=O)c1cc(-n2ccnc2)c2ccc(Cl)c(Cl)c2n1` [I-225], the pIC50 is above 5.70.

For the compound `O=C(O)c1cc(-c2cc(Cl)c3ccc(Cl)c(Cl)c3n2)ccc1O` [I-75, 2-Hydroxy-5-(4,7,8-trichloroquinolin-2-yl)benzoic acid], the pIC50 is below 4.52.

On to `c1ccc2c(-n3ccnc3)ccnc2c1` [I-410], for which the pIC50 was below 4.52.

On to `Oc1cccc(-c2cc(-n3ccnc3)c3ccc(Cl)c(Cl)c3n2)c1` [I-43], for which the pIC50 is above 5.70.

Consider `O=C(O)CC1CCN(c2cc(-n3ccnc3)c3ccc(Cl)cc3n2)C1` (stereo not shown) [I-446], for which the pIC50 was 4.52 to 5.70.

As to `O=C(NCCO)[C@@H]1CCCN1c1cc(-n2ccnc2)c2ccc(Cl)c(Cl)c2n1` [I-452], the pIC50 is 4.52 to 5.70.

Take `CN(CCCO)c1cc(-c2cn[nH]c2)c2ccc(Cl)c(Cl)c2n1` [I-248]: the pIC50 was above 5.70.

As for `Fc1ccc2c(-n3ccnc3)ccnc2c1` [I-416], the pIC50 is below 4.52.

Take `O=C(O)CCN(CC(=O)O)c1cc(-n2ccnc2)c2ccc(Cl)c(Cl)c2n1` [I-175]: the pIC50 is above 5.70.

With `Clc1ccc2c(-n3cncc3C3CC3)cc(-c3ccccc3)nc2c1` [I-65], the pIC50 is below 4.52.

`Cc1cc(N2CCCC(O)CC2)c2ccc(Cl)c(Cl)c2n1` (stereo not shown) [I-311]: the pIC50 was below 4.52.

For the compound `O=C1CN(c2cc(-n3ccnc3)c3ccc(Cl)cc3n2)CC(C(=O)O)N1` (stereo not shown) [I-84], the pIC50 was 4.52 to 5.70.

Turning to `Clc1ccc2c(-c3cn[nH]c3)cc(NCC3CNCCO3)nc2c1Cl` (stereo not shown) [I-220], the pIC50 was 4.52 to 5.70.

For the compound `O=C(O)CC1COCCN1c1cc(-n2ccnc2)c2ccc(Cl)c(Cl)c2n1` (stereo not shown) [I-94], the pIC50 was above 5.70.

For `Cc1cc(NCCS(N)(=O)=O)c2ccc(Cl)c(Cl)c2n1` [I-308], the pIC50 was below 4.52.

With `O=C(O)C1CN(c2cc(-n3ccnc3)c3ccc(Cl)c(Cl)c3n2)CCC1O` (stereo not shown) [I-332], the pIC50 is above 5.70.

As to `O=C1CN(c2cc(-n3ccnc3)c3ccc(Cl)cc3n2)CCN1` [I-85], the pIC50 is above 5.70.

Consider `C[C@@H](Nc1cc(-c2cn[nH]c2)nc2c(Cl)c(Cl)ccc12)C(=O)O` [I-286], for which the pIC50 is above 5.70.

As for `O=C(O)c1cccc(-c2cc(-n3ccnc3)c3ccc(Cl)cc3n2)c1` [I-6, 3-(7-Chloro-4-(1H-imidazol-1-yl)quinolin-2-yl)benzoic acid], the pIC50 is above 5.70.

As to `Brc1ccc2c(-n3ccnc3)cc(-c3cccs3)nc2c1` [I-380, 7-bromo-4-(1H-imidazol-1-yl)-2-(thiophen-2-yl)quinoline], the pIC50 was 4.52 to 5.70.

The assay is the same for the next values; noted with them: Table 3, read-out: cGAS Inhibition Results IC50.
For `O=C(O)CCO[C@@H]1CCN(c2cc(-n3ccnc3)c3ccc(Cl)c(Cl)c3n2)C1` [I-767], the pIC50 was 4.52 to 5.70.

As for `COC(=O)C1CCCN(C(=O)C[C@@H]2CCCN2c2cc(-n3ccnc3)c3ccc(Cl)c(Cl)c3n2)C1` (stereo partly shown) [I-535], the pIC50 was 4.52 to 5.70.

In the case of `CN(CCNC(=O)CCO)c1cc(-n2ccnc2)c2ccc(Cl)c(Cl)c2n1` [I-614], the pIC50 is 4.52 to 5.70.

In the case of `CN(CC(=O)NCCC(N)=O)c1cc(-n2ccnc2)c2ccc(Cl)c(Cl)c2n1` [I-568], the pIC50 is 4.52 to 5.70.

For the compound `C[C@]1(C(=O)O)CCCN1c1cc(-n2ccnc2)c2ccc(Cl)c(Cl)c2n1` [I-456], the pIC50 is below 4.52.

As for `O=C(O)CCO[C@H]1CCN(c2cc(-n3ccnc3)c3ccc(Cl)c(Cl)c3n2)C1` [I-771], the pIC50 is 4.52 to 5.70.

Turning to `O=C(O)[C@H](O)[C@@H]1CCCN1c1cc(-n2ccnc2)c2ccc(Cl)c(Cl)c2n1` [I-661, (R)-2-((S)-1-(7,8-dichloro-4-(1H-imidazol-1-yl)quinolin-2-yl)pyrrolidin-2-yl)-2-hydroxyacetic acid], the pIC50 was above 5.70.

Consider `O=C(O)[C@@H]1[C@H]2C[C@H]2CN1c1cc(-n2ccnc2)c2ccc(Cl)c(Cl)c2n1` [I-480], for which the pIC50 was above 5.70.

For `O=C1CC2CCC(C1)N2c1cc(-n2ccnc2)c2ccc(Cl)c(Cl)c2n1` [I-488], the pIC50 is above 5.70.

On to `COC(=O)[C@H]1[C@H](O)CCN1c1cc(-n2ccnc2)c2ccc(Cl)c(Cl)c2n1` [I-497], for which the pIC50 is 4.52 to 5.70.

`NC(=O)C[C@@H]1CCCN1c1cc(-n2ccnc2)c2ccc(Cl)c(Cl)c2n1` [I-603]: the pIC50 was above 5.70.

On to `OC1CC2CCCC(C1)N2c1cc(-n2ccnc2)c2ccc(Cl)c(Cl)c2n1` (stereo not shown) [I-492], for which the pIC50 is 4.52 to 5.70.

On to `CN(CCC(=O)O)C(=O)CCN(C)c1cc(-n2ccnc2)c2ccc(Cl)c(Cl)c2n1` [I-564], for which the pIC50 was above 5.70.

`O=C(O)c1cccc(S(=O)(=O)NC[C@@H]2CCCN2c2cc(-n3ccnc3)c3ccc(Cl)c(Cl)c3n2)c1` [I-638]: the pIC50 is 4.52 to 5.70.

For the compound `COC(=O)[C@@H]1[C@@H](OC)CCN1c1cc(-n2ccnc2)c2ccc(Cl)c(Cl)c2n1` [I-646, methyl (2S,3S)-1-(7,8-dichloro-4-(1H-imidazol-1-yl)quinolin-2-yl)-3-methoxypyrrolidine-2-carboxylate], the pIC50 was 4.52 to 5.70.

For the compound `NC(=O)[C@@H]1C[C@@H](O)CN1c1cc(-n2ccnc2)c2ccc(Cl)c(Cl)c2n1` [I-502], the negative-log IC50 (pIC50) is 4.52 to 5.70.

With `O=P(O)(O)CCOC[C@@H]1CCCN1c1cc(-n2ccnc2)c2ccc(Cl)c(Cl)c2n1` [I-763, (S)-(2-((1-(7,8-dichloro-4-(1H-imidazol-1-yl)quinolin-2-yl)pyrrolidin-2-yl)methoxy)ethyl)phosphonic acid], the pIC50 is above 5.70.
